Results as given in article PMC8532962 (Antibiotics, 2021).
≈ marks a conversion by molar mass, not a printed value. Peptide text beside a SMILES is read from it.

Experiments:
[1] = test system: Schizosaccharomyces pombe 972h-
[2] = test system: tested bacteria; type: cell-based
[3] = test system: Candida albicans SC5314; conditions: SC5314, 24 h
[4] = test system: Aspergillus nidulans FGSC A4; conditions: 24 h
[5] = test system: Saccharomyces cerevisiae S288C; conditions: 24 h
[6] = test system: Histoplasma capsulatum G217B; conditions: 96 h
[7] = test system: Histoplasma capsulatum G217B; assay: microbe, parasite or virus in culture; conditions: 96 h, read-out: MIC Hc
[8] = test system: Schizosaccharomyces pombe 972h-; assay: microbe, parasite or virus in culture; conditions: read-out: MIC Sp
[9] = test system: Candida albicans SC5314; assay: microbe, parasite or virus in culture; conditions: SC5314, 24 h, read-out: MIC Ca
[10] = test system: Aspergillus nidulans FGSC A4; assay: microbe, parasite or virus in culture; conditions: FGSCA4, 24 h, read-out: MIC An
[11] = test system: Saccharomyces cerevisiae S288C; assay: microbe, parasite or virus in culture; conditions: 24 h, read-out: MIC Sc
[12] = test system: human erythrocytes; assay: Hemolytic activity; type: cell-based; conditions: 1% human erythrocytes in PBS, 37 °C, 1 h, hemoglobin at 416 nm, 100% = 1% TritonX-100, biological triplicate
Protocol: Type O+ fresh human blood was purchased from Tennessee Blood Services Corp. (Memphis, TN, USA) in 10% citrate phosphate dextrose 10X phosphate saline solution (PBS) and EDTA (K2). Upon receiving the blood, it was washed using three volumes of 1X PBS + 5 mM glucose. The suspension was centrifuged at 1000× g for 10 min at 4 °C and the supernatant removed. The process was repeated two more times. The sedimented cells were resuspended in the same volume of 1X PBS + 5 mM glucose and stored at 4 °C until use.
[…] The cell suspensions were incubated at 37 °C for 1 h. The unlysed erythrocytes were removed by centrifugation (16,000× g) and the released hemoglobin was determined spectrophotometrically at 416 nm using a NanoDrop spectrophotometer (Thermo Fisher Scientific, Waltham, MA, USA). The control for no release of hemoglobin was a sample of 1% erythrocytes incubated in PBS without peptide. The control for 100% release of hemoglobin was a sample of 1% erythrocyte incubated in PBS with 1% TritonX-100. Each assay was performed in biological triplicate.

[13] = test system: B. subtilis; assay: Antibacterial MIC, microbroth dilution; type: cell-based, Bacillus subtilis JH642; conditions: B. subtilis JH642; CLSI microbroth dilution, cation-adjusted Mueller-Hinton broth, 37 °C, OD600 every 15 min for 20 h, biological triplicate
Protocol: (§1) The antibacterial activity of the natural peptides and analogs was determined using the standard microbroth dilution method for determining minimal inhibitory concentration (MIC). […] The analog EMP-ER-D2K2 is the only analog that has some, but low, activity against B. subtilis with an MIC of 200 μg/mL.
(§2) Escherichia coli ATCC 25922 was obtained from ATCC and Pseudomonas aeruginosa ATCC 27853 was obtained from Carolina Biologicals. Staphylococcus aureus Newman was the S. aureus strain and the B. subtilis strain was JH642 (trpC2, pheA1).
(§3) Bacteria were grown on LB-agar plates (Fisher, Waltham, MA, USA) overnight at 37 °C, then stored at 4 °C until use. Four colonies were inoculated from the plate into 5 mL cation-adjusted Mueller-Hinton medium (Sigma) and grown to approximately OD600 = 1–2 at 37 °C in a shaking incubator at 250 rpm in preparation for antimicrobial activity testing. MICs were determined in cation-adjusted Mueller-Hinton broth using the microbroth dilution method from the Clinical and Laboratory Standards Institute. Growth was monitored by determining the optical density at 600 nm using a BioTek Synergy HTX multi-mode 96-well plate reader set to incubate at 37 °C and record every 15 min for 20 h. Each assay was performed in biological triplicate.

[14] = test system: human erythrocytes; conditions: cited from earlier work
Protocol: For EMP-ER, Konno reports 100% hemolysis for a concentration of 0.5 μg/mL and about 50% for 0.18 μg/mL [33].

[15] = test system: E. coli; assay: Antibacterial MIC, microbroth dilution; type: cell-based, Escherichia coli ATCC 25922; conditions: E. coli ATCC 25922; CLSI microbroth dilution, cation-adjusted Mueller-Hinton broth, 37 °C, OD600 every 15 min for 20 h, biological triplicate
Protocol: as §1, §2, §3

[16] = test system: S. aureus; assay: Antibacterial MIC, microbroth dilution; type: cell-based; conditions: Staphylococcus aureus Newman; CLSI microbroth dilution, cation-adjusted Mueller-Hinton broth, 37 °C, OD600 every 15 min for 20 h, biological triplicate
Protocol: as §1, §2, §3

[17] = test system: P. aeruginosa; assay: Antibacterial MIC, microbroth dilution; type: cell-based, Pseudomonas aeruginosa ATCC 27853; conditions: P. aeruginosa ATCC 27853; CLSI microbroth dilution, cation-adjusted Mueller-Hinton broth, 37 °C, OD600 every 15 min for 20 h, biological triplicate
Protocol: as §1, §2, §3

SMILES	MIC Sp [1]	antibacterial activity [2]	MIC Ca [3]	MIC An [4]	MIC Sc [5]	MIC Hc [6]	MIC [7]	MIC [8]	MIC [9]	MIC [10]	MIC [11]	hemolysis [12]	MIC B. subtilis [13]	hemolysis (release) ([14]; at concentrations of 0.5 μg/m)	hemolysis potency relative to mastoparan [14]	MIC E. coli [15]	MIC S. aureus [16]	MIC P. aeruginosa [17]
CC[C@H](C)[C@H](N)C(=O)N[C@@H](CC(N)=O)C(=O)N[C@@H](CCCCN)C(=O)N[C@@H](CC(C)C)C(=O)N[C@H](C(=O)N[C@H](C(=O)N[C@@H](CCCCN)C(=O)N[C@H](C(=O)NCC(=O)N[C@@H](CCCCN)C(=O)N[C@H](C(=O)N[C@H](C(=O)N[C@@H](CO)C(=O)N[C@@H](CC(C)C)C(N)=O)C(C)C)[C@@H](C)CC)C(C)C)[C@@H](C)CC)C(C)C [EMP-AF-KV] (H-INKLVIKVGKIVSL-NH2)	>256 µg/mL	no antibacterial activity	>256 µg/mL	>256 µg/mL	>256 µg/mL	>256 µg/mL	–	–	–	–	–	–	–	–	–	–	–	–
C[C@@H]1[C@H](O)[C@@H](C)/C=C/C=C/C=C/C=C/C=C/C=C/C=C/[C@H](O[C@@H]2O[C@H](C)[C@@H](O)[C@H](N)[C@@H]2O)C[C@@H]2O[C@](O)(C[C@@H](O)C[C@@H](O)[C@H](O)CC[C@@H](O)C[C@@H](O)CC(=O)O[C@H]1C)C[C@H](O)[C@H]2C(=O)O [Amphotericin B]	–	–	–	–	–	–	0.5 µg/mL (≈ 0.541 µM)	0.25 µg/mL (≈ 0.271 µM)	0.5 µg/mL (≈ 0.541 µM)	> 16 µg/mL	1 µg/mL (≈ 1.08 µM)	–	–	–	–	–	–	–
CC[C@H](C)[C@H](N)C(=O)N[C@@H](CC(N)=O)C(=O)N[C@@H](CC(C)C)C(=O)N[C@@H](CC(C)C)C(=O)N[C@@H](CCCCN)C(=O)N[C@H](C(=O)N[C@@H](C)C(=O)N[C@@H](CCCCN)C(=O)NCC(=O)N[C@H](C(=O)N[C@H](C(=O)N[C@@H](CCCCN)C(=O)N[C@@H](CO)C(=O)N[C@@H](CC(C)C)C(N)=O)[C@@H](C)CC)[C@@H](C)CC)[C@@H](C)CC [EMP-AF-OR] (H-INLLKIAKGIIKSL-NH2)	>256 µg/mL	–	>256 µg/mL	>256 µg/mL	>256 µg/mL	128 µg/mL (≈ 84 µM)	–	–	–	–	–	100%	10 µg/mL	75%	one-third	25 µg/mL	25 µg/mL	200 µg/mL
